Reference: patent publication US10485836B2, “Anti-fatigue composition used for increasing endurance performance, and use of the same” (SINPHAR PHARMACEUTICAL CO., LTD., priority 2017, dated 2019)

Key:
C2C12 muscle cells [1] = test: Oxygen consumption rate of TNF-α damaged muscle cells (Seahorse XF24); assay type: cell-based, mice; settings: TNF-α 10 ng/ml, relative to control group (1-fold); for oxygen consumption of ATP production: FIG. 1A; for oxygen consumption of maximal respiration: FIG. 1B
Text: (§1) It is known that severe exercise or long-term exercise may lead to a large release of tumor necrosis factor alpha (TNF-α) and a decrease in mitochondria functions such as oxygen consumption rate (OCR, which represents the ability of aerobic metabolism of mitochondria) and extracellular acidification rate (ECAR, which represents the ability of glycolysis of mitochondria), so that the mitochondria cannot generate enough energy to supply cells in a subject, thereby resulting in the occurrence of fatigue in the subject. In this example, the C2C12 muscle cells with TNF-α induced damages were administered with the composition of the present invention, which comprises Cistanche tubulosa extract and ubiquinol, to understand the effect of the composition on anti-fatigue.
First, C2C12 cells (i.e., the muscle cells of mice; purchased from ATCC) were cultivated in an H-DMEM medium (purchased from Sigma company) containing 10% fetal bovine serum (purchased from BI company). After the C2C12 cells grew to the confluence rate of 80% (i.e., the mixed monolayer cells were accounted for 80% of the area), the cells were divided into seventeen groups (including a control group, a TNF-α group and fifteen experimental groups) and separately subjected to the following treatments: • 1. Control group: cells were cultivated in an H-DMEM medium for 6 hours; and then, the medium was replaced with a differentiation medium (containing an H-DMEM medium and 2% horse serum), and the cells were continuously cultivated for another 4 days. • 2. TNF-α group: cells were cultivated in an H-DMEM medium for 6 hours; and then, the medium was replaced with a differentiation medium (containing an H-DMEM medium and 2% horse serum) being externally added with TNF-α (to a final concentration of 10 ng/ml), and the cells were continuously cultivated overnight; finally, the medium was replaced with a differentiation medium, and the cells were cultivated for another 4 days. • 3. […] In Table 1, the extract and ubiquinol were dissolved in a differentiation medium, and the unit “μg/ml” represents the weight of extract (as dry weight) and/or ubiquinol (as dry weight) in every milliliter of the differentiation medium.
The cells in the control group, TNF-α group and experimental groups 1 to 15 provided by Example (1-1) were respectively taken, and the oxygen consumption rates (including the oxygen consumption of ATP production and the oxygen consumption of maximal respiration) thereof were examined by a cell energy metabolism analyzer (Seahorse XF24). Then, the result of the control group was served as a basis (i.e., the oxygen consumption rate of the control group was set as 1-fold) to calculate the oxygen consumption rate of each group.

C2C12 muscle cells [2] = test: Extracellular acidification rate of TNF-α damaged muscle cells (cell energy metabolism analyzer); assay type: cell-based, mice; settings: TNF-α 10 ng/ml, relative to control group (1-fold)
Text: as §1
First, C2C12 cells (i.e., the muscle cells of mice; purchased from ATCC) were cultivated in an H-DMEM medium (purchased from Sigma company) containing 10% fetal bovine serum (purchased from BI company). After the C2C12 cells grew to the confluence rate of 80% (i.e., the mixed monolayer cells were accounted for 80% of the area), the cells were divided into seventeen groups (including a control group, a TNF-α group and fifteen experimental groups) and separately subjected to the following treatments: • 1. […]

| Compound | oxygen consumption of ATP production (C2C12 muscle cells [1]) | oxygen consumption of maximal respiration (C2C12 muscle cells [1]) | glycolysis level (C2C12 muscle cells [2]; FIG. 2A) | glycolytic reserve (C2C12 muscle cells [2]; FIG. 2B) |
| --- | --- | --- | --- | --- |
| COc1c(O)c(C)c(C/C=C(\C)CC/C=C(\C)CC/C=C(\C)CC/C=C(\C)CC/C=C(\C)CC/C=C(\C)CC/C=C(\C)CC/C=C(\C)CC/C=C(\C)CCC=C(C)C)c(O)c1OC [ubiquinol] | cannot alleviate | cannot alleviate | – | – |
| TNF-α | significantly decreased | significantly decreased | significantly increased | significantly decreased |
